In paper PMC6934184, “Selective DNA-PKcs inhibition extends the therapeutic index of localized radiotherapy and chemotherapy” (The Journal of Clinical Investigation, 2019):

Target: T1, ABL2 (Arg) (Homo sapiens, UniProt P42684)
T1 construct: purchased Thermo Fisher Scientific (Life Technologies) SelectScreen
Assay: SelectScreen Z'LYTE
Format: biochemical
In short: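 SelectScreen broad panel; activity (Z'LYTE, Adapta) plus binding formats. ATP: Km app for CSF1R Z'LYTE; 10 for CAMK1 Adapta. Readout = % per kinase.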

T1 sequence (P42684 whole entry): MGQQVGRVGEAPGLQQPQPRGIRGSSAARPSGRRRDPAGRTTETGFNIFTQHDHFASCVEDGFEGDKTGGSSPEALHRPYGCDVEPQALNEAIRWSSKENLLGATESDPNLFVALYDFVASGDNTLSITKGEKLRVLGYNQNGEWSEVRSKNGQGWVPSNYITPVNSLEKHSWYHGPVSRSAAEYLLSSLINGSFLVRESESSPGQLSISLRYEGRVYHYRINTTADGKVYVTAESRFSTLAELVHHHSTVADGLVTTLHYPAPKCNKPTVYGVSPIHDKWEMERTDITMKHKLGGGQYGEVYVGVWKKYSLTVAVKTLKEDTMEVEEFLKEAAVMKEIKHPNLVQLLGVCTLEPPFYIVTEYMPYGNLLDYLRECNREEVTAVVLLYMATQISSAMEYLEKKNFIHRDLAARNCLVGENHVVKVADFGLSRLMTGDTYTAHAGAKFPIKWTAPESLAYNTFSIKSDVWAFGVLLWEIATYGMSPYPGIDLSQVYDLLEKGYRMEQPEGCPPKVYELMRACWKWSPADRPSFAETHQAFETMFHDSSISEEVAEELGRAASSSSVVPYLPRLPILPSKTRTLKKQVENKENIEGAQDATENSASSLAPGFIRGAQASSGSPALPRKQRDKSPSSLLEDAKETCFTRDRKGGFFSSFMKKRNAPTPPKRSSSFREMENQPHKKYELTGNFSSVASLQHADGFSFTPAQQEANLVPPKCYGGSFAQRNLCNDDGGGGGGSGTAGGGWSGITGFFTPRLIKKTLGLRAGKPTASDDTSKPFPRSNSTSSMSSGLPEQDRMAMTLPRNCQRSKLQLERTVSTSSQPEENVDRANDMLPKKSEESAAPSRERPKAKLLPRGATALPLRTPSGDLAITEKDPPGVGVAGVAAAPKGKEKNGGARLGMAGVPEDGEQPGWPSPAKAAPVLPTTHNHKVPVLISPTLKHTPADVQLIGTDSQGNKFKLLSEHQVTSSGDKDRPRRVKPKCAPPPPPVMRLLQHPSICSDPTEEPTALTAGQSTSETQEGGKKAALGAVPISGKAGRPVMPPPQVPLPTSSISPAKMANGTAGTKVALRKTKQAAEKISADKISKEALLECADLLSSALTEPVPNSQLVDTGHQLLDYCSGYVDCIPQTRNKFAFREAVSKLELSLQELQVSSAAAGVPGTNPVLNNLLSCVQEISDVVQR

`CN(C(=O)CN1CCOCC1)c1ccc2sc3c(-c4cccc5c(=O)cc(N6CC7CCC(C6)O7)oc45)cccc3c2c1` [NU5455] gave an inhibition at 1 µM of -10.3%.
